IC50 data for 69 compounds are collected here from patent US10308660B2, “Compounds and compositions for inhibiting the activity of SHP2” (Novartis AG, priority 2015, dated 2019).

For orientation: IC50 means the concentration that inhibits the measured activity by half. High values mean weaker potency in that assay, low ones greater potency in that assay.

The experiment has as its target SHP2 (Homo sapiens (Human), UniProt Q06124). Put plainly: SHP2 allosteric inhibition assay (DiFMUP prompt fluorescence). Format: biochemical. As to conditions: 0.5 nM SHP2 activated with 0.5 μM peptide IRS1_pY1172(dPEG8)pY1222; substrate DiFMUP; 25° C.

SHP2, sequence (Q06124 whole entry): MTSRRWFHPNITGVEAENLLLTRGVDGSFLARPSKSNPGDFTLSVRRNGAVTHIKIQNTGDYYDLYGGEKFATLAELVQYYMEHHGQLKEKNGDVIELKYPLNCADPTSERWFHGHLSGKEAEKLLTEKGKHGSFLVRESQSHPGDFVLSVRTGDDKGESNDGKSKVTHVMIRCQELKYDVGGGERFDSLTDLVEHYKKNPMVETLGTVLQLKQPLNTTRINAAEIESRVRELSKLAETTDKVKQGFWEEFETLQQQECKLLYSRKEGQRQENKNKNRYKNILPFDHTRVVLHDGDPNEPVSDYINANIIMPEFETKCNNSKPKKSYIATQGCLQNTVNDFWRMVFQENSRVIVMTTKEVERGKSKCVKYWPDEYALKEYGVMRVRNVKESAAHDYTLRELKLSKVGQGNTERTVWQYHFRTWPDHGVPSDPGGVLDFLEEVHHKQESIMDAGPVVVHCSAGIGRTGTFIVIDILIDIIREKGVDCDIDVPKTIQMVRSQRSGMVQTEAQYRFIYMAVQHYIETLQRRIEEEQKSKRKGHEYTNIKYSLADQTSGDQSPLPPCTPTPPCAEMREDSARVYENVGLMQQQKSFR

In the case of `C[C@@H]1CC2(CCN(c3nc(N)c(Sc4ccnc(N)c4Cl)c(=O)n3C)CC2)[C@@H](N)[C@H]1F` (single isomer, unassigned) [Example 37], the IC50 is 47 nM. This counts as double-digit nanomolar.

With `C[C@@H]1CC2(CCN(c3nc(N)c(Sc4ccnc(N)c4Cl)c(=O)n3C)CC2)[C@H](N)[C@@H]1F` (single isomer, unassigned) [Example 38], the IC50 turned out to be 30 nM. This IC50 is about 1.6-fold lower than that of the compound before.

As for `C[C@H]1CC2(CCN(c3nc(N)c(Sc4cccnc4C(F)(F)F)c(=O)n3C)CC2)[C@@H](N)[C@@H]1C(F)(F)F` (single isomer, unassigned) [Example 64], the IC50 was found to be 856 nM.

For the compound `C[C@H]1CC2(CCN(c3nc(N)c(Sc4cccnc4C(F)(F)F)c(=O)n3C)CC2)[C@H](N)[C@@H]1C(F)(F)F` (single isomer, unassigned) [Example 65], the midpoint of inhibition, the IC50, lay at 61 nM.

For the compound `C[C@@H]1OCC2(CCN(c3nc(N)c(Sc4ccnc(N)c4Cl)c(=O)n3C)CC2)[C@@H]1N` [Example 3], the IC50 was 44 nM.

Take `Cn1c(N2CCC(C)(CN)CC2)nc(N)c(Sc2ccnc(N)c2Cl)c1=O` [Example 4]: the midpoint of inhibition, the IC50, lay at 53 nM.

In turn, `Cn1c(N2CCC(C)(CN)CC2)nc(N)c(Sc2cccc(Cl)c2)c1=O` [Example 5] gave a 50% inhibitory concentration (IC50) of 2210 nM. This IC50 is about 42-fold higher than that of the compound before.

Take `Cn1c(N2CCC(C)(CN)CC2)nc(N)c(Sc2ccccc2Cl)c1=O` [Example 6]: the IC50 was 286 nM.

The compound `Cn1c(N2CCC(C)(CN)CC2)nc(N)c(Sc2cccnc2C(F)(F)F)c1=O` [Example 7] came in with an IC50 of 109 nM.

Compound `Cn1c(N2CCC(C)(CN)CC2)nc(N)c(Sc2cccc(N)c2Cl)c1=O` [Example 8] registered an IC50 of 232 nM. This IC50 is about 2.1-fold higher than that of the compound before.

Consider `COc1cccc(Sc2c(N)nc(N3CCC(C)(CN)CC3)n(C)c2=O)c1Cl` [Example 9], for which the IC50 was 47 nM.

The compound `Cn1c(N2CCC(C)(CN)CC2)nc(N)c(Sc2cccc(C#N)c2)c1=O` [Example 10] gave an IC50 of 5630 nM. Against the preceding compound, the IC50 is about 120-fold higher.

`Cn1c(N2CCC(C)(CN)CC2)nc(N)c(Sc2cccc(OC(F)(F)F)c2)c1=O` [Example 11] had an IC50 of 441 nM.

Take `Cn1c(N2CCC3(CCC[C@H]3N)CC2)nc(N)c(Sc2cccc(Cl)c2Cl)c1=O` [Example 13]: the half-inhibitory concentration (IC50) was found to be 39 nM.

`Cn1c(N2CCC3(CCC[C@H]3N)CC2)nc(N)c(Sc2cccnc2C(F)(F)F)c1=O` [Example 14] displayed an IC50 of 98 nM.

`Cn1c(N2CCC3(CC2)COC[C@H]3N)nc(N)c(Sc2ccnc(N)c2Cl)c1=O` [Example 16]: the 50% inhibitory concentration (IC50) stood at 22 nM.

For the compound `C[C@@H]1OCC2(CCN(c3nc(N)c(Sc4cc(N)nc(Cl)c4Cl)c(=O)n3C)CC2)[C@@H]1N` [Example 19], the IC50 worked out at 14 nM.

`COc1cccc(Sc2c(N)nc(N3CCC4(CC3)CO[C@@H](C)[C@H]4N)n(C)c2=O)c1Cl` [Example 20] displayed an IC50 of 17 nM.

In turn, `C[C@H]1C[C@@H](N)C2(CCN(c3nc(N)c(Sc4ccnc(N)c4Cl)c(=O)n3C)CC2)C1` [Example 21] gave an IC50 of 28 nM. This IC50 lies about 1.6-fold higher than the previous one.

On to `C[C@@H]1OCC2(CCN(c3nc(N)c(Sc4cccnc4OC(F)(F)F)c(=O)n3C)CC2)[C@@H]1N` [Example 22], for which inhibition was half-maximal at 108 nM (IC50). This IC50 is about 3.9-fold higher than that of the compound before.

Take `COc1nccc(Sc2c(N)nc(N3CCC4(CC3)CO[C@@H](C)[C@H]4N)n(C)c2=O)c1Cl` [Example 23]: the IC50 came to 23 nM.

The compound `Cn1c(N2CCC(C)(CN)CC2)nc(N)c(Sc2cccc3ncccc23)c1=O` [Example 24] yielded an IC50 of 299 nM.

As to `C[C@@H]1OCC2(CCN(c3nc(N)c(Sc4cccc(N)c4Cl)c(=O)n3C)CC2)[C@@H]1N` [Example 25], half-maximal inhibition (IC50) required 38 nM.

Consider `C[C@@H]1OCC2(CCN(c3nc(N)c(Sc4ccccc4)c(=O)n3C)CC2)[C@@H]1N` [Example 26], for which the IC50 came out at 82 nM.

On to `C[C@@H]1OCC2(CCN(c3nc(N)c(Sc4ccccc4Cl)c(=O)n3C)CC2)[C@@H]1N` [Example 27], for which half-maximal inhibition (IC50) was put at 25 nM.

`C[C@@H]1OCC2(CCN(c3nc(N)c(Sc4ccnc(N5CCCC5)c4Cl)c(=O)n3C)CC2)[C@@H]1N` [Example 28]: the IC50 was found to be 28 nM. This IC50 and that of the compound before are within 1.5-fold of each other.

As to `CCOc1nccc(Sc2c(N)nc(N3CCC4(CC3)CO[C@@H](C)[C@H]4N)n(C)c2=O)c1Cl` [Example 30], the IC50 came to 32 nM.

`C[C@@H]1OCC2(CCN(c3nc(N)c(Sc4cccc(N)c4C(F)(F)F)c(=O)n3C)CC2)[C@@H]1N` [Example 31] had an IC50 of 20 nM.

The compound `C[C@@H]1CC2(CCN(c3nc(N)c(Sc4cccnc4C(F)(F)F)c(=O)n3C)CC2)[C@H](N)C1(F)F` [Example 33] yielded an IC50 of 40 nM. This IC50 lies about 2-fold higher than the previous one.

As for `C[C@@H]1CC2(CCN(c3nc(N)c(Sc4ccnc(N)c4Cl)c(=O)n3C)CC2)[C@H](N)C1(F)F` [Example 34], inhibition was half-maximal at 57 nM (IC50).

Turning to `Cn1c(N2CCC3(CC2)C[C@H](F)C[C@H]3N)nc(N)c(Sc2cccnc2C(F)(F)F)c1=O` [Example 35], the IC50 worked out at 24 nM.

Consider `Cn1c(N2CCC3(CC2)C[C@H](F)C[C@H]3N)nc(N)c(Sc2ccnc(N)c2Cl)c1=O` [Example 36], for which the half-maximal inhibitory concentration (IC50) stood at 69 nM.

Turning to `Cn1c(N2CCC3(CC2)CC(F)(F)C[C@H]3N)nc(N)c(Sc2ccnc(N)c2Cl)c1=O` [Example 42], the IC50 was determined as 14 nM.

With `Cn1c(N2CCC3(CC2)CC(F)(F)C[C@H]3N)nc(N)c(Sc2cccnc2C(F)(F)F)c1=O` [Example 43], the midpoint of inhibition, the IC50, lay at 18 nM.

For the compound `Cn1c(N2CCC(C)(CN)CC2)nc(N)c(Sc2ccccc2Br)c1=O` [Example 45], half-maximal inhibition (IC50) required 137 nM.

`Cn1c(N2CCC(C)(CN)CC2)nc(N)c(Sc2ccccc2OC(F)(F)F)c1=O` [Example 46] gave an IC50 of 89 nM.

`COc1ccccc1Sc1c(N)nc(N2CCC(C)(CN)CC2)n(C)c1=O` [Example 47] had an IC50 of 206 nM. Compared with the last compound, the IC50 is about 2.3-fold higher.

For the compound `Cn1c(N2CCC(C)(CN)CC2)nc(N)c(Sc2ccccc2[N+](=O)[O-])c1=O` [Example 48], the IC50 amounted to 300 nM.

Consider `Cn1c(N2CCC(C)(CN)CC2)nc(N)c(Sc2ccccc2C(F)(F)F)c1=O` [Example 49], for which the IC50 turned out to be 74 nM.

For `Cn1c(N2CCC(C)(CN)CC2)nc(N)c(Sc2cccc3c2OC(F)(F)O3)c1=O` [Example 50], the IC50 was 152 nM.

The compound `Cn1c(N2CCC(C)(CN)CC2)nc(N)c(Sc2ccccc2C#N)c1=O` [Example 51] returned an IC50 of 391 nM.

`Cn1c(N2CCC(C)(CN)CC2)nc(N)c(Sc2ccccc2O)c1=O` [Example 52] yielded an IC50 of 721 nM.

Take `Cn1c(N2CCC(C)(CN)CC2)nc(N)c(Sc2ccc(N)cc2Cl)c1=O` [Example 53]: the half-maximal inhibitory concentration (IC50) is 609 nM.

In turn, `Cc1ccccc1Sc1c(N)nc(N2CCC(C)(CN)CC2)n(C)c1=O` [Example 54] returned an IC50 of 200 nM.

For `Cn1c(N2CCC(C)(CN)CC2)nc(N)c(Sc2cccc3ccccc23)c1=O` [Example 55], inhibition was half-maximal at 45 nM (IC50). This IC50 is about 4.4-fold lower than that of the compound before.

With `Cn1c(N2CCC(C)(CN)CC2)nc(N)c(Sc2ccc(Cl)cc2Cl)c1=O` [Example 56], half-maximal inhibition (IC50) required 170 nM. Against the preceding compound, the IC50 is about 3.8-fold higher.

`Cn1c(N2CCC(C)(CN)CC2)nc(N)c(Sc2cccc3cccnc23)c1=O` [Example 57] registered a half-maximal inhibitory concentration (IC50) of 279 nM.

`C[C@@H]1OCC2(CCN(c3nc(N)c(Sc4ccnc(C(F)(F)F)c4Cl)c(=O)n3C)CC2)[C@@H]1N` [Example 59] returned an IC50 of 43 nM.

For the compound `C[C@H]1C[C@@H](N)C2(CCN(c3nc(N)c(Sc4cccc(N)c4Cl)c(=O)n3C)CC2)C1` [Example 60], inhibition was half-maximal at 16 nM (IC50).

For `C[C@@H]1OCC2(CCN(c3nc(N)c(Sc4ccncc4C(F)(F)F)c(=O)n3C)CC2)[C@@H]1N` [Example 61], 93 nM corresponded to half-maximal inhibition (IC50). This IC50 is about 5.8-fold higher than that of the compound before.

Compound `C[C@H]1C[C@@H](N)C2(CCN(c3nc(N)c(Sc4ccnc(N5CCCC5)c4Cl)c(=O)n3C)CC2)C1` [Example 62] gave an IC50 of 25 nM.

In turn, `Cn1c(N2CCC3(CC2)COC[C@H]3N)nc(N)c(Sc2cccnc2C(F)(F)F)c1=O` [Example 63] showed an IC50 of 34 nM.

Regarding `C[C@H]1C[C@@H](N)C2(CCN(c3nc(N)c(Sc4cccnc4Cl)c(=O)n3C)CC2)C1` [Example 66], half-maximal inhibition (IC50) was put at 20 nM.

Compound `C[C@H]1C[C@@H](N)C2(CCN(c3nc(N)c(Sc4cc(N)cnc4Cl)c(=O)n3C)CC2)C1` [Example 68] gave an IC50 of 10 nM.

For `C[C@H]1C[C@@H](N)C2(CCN(c3nc(N)c(Sc4cc(N)ccc4Cl)c(=O)n3C)CC2)C1` [Example 69], half-maximal inhibition (IC50) was put at 10 nM. This counts as double-digit nanomolar.

Turning to `C[C@H]1C[C@@H](N)C2(CCN(c3nc(N)c(Sc4cc(N)nc(Cl)c4Cl)c(=O)n3C)CC2)C1` [Example 70], the midpoint of inhibition, the IC50, lay at 11 nM.

Turning to `Cn1c(N2CCC3(CC2)COC[C@H]3N)nc(N)c(Sc2cccc(Cl)c2Cl)c1=O` [Example 72], the IC50 is 33 nM. This IC50 is about 3-fold higher than that of the compound before.

Regarding `C[C@H]1C[C@@H](N)C2(CCN(c3nc(N)c(Sc4ccnc(Cl)c4C(F)(F)F)c(=O)n3C)CC2)C1` [Example 73], the IC50 turned out to be 71 nM. This IC50 lies about 2.2-fold higher than the previous one.

Regarding `C[C@H]1C[C@@H](N)C2(CCN(c3nc(N)c(Sc4ccncc4C(F)(F)F)c(=O)n3C)CC2)C1` [Example 75], the IC50 was 18 nM. This IC50 is about 3.9-fold lower than that of the compound before.

With `C[C@H]1C[C@@H](N)C2(CCN(c3nc(N)c(Sc4ccncc4Cl)c(=O)n3C)CC2)C1` [Example 76], the IC50 was 27 nM.

As to `COc1nccc(Sc2c(N)nc(N3CCC4(CC3)C[C@@H](C)C[C@H]4N)n(C)c2=O)c1Cl` [Example 77], the IC50 was determined as 39 nM. The IC50 values of the last two compounds are within 1.5-fold of each other.

As to `C[C@@H]1OCC2(CCN(c3nc(N)c(Sc4cccc5c4OCO5)c(=O)n3C)CC2)[C@@H]1N` [Example 78], 12 nM corresponded to half-maximal inhibition (IC50).

The compound `COc1ccc(Sc2c(N)nc(N3CCC4(CC3)CO[C@@H](C)[C@H]4N)n(C)c2=O)cc1F` [Example 79] came in with an IC50 of 370 nM.

Turning to `Cc1ncccc1Sc1c(N)nc(N2CCC3(CC2)CO[C@@H](C)[C@H]3N)n(C)c1=O` [Example 80], inhibition was half-maximal at 68 nM (IC50).

For the compound `C[C@@H]1OCC2(CCN(c3nc(N)c(Sc4ccc(F)cc4Cl)c(=O)n3C)CC2)[C@@H]1N` [Example 81], the IC50 worked out at 15 nM. Compared with the last compound, the IC50 is about 4.5-fold lower.

Compound `Cn1c(N2CCC3(CC2)CC(F)(F)C[C@H]3N)nc(N)c(Sc2ccc(F)cc2Cl)c1=O` [Example 82] registered an IC50 of 25 nM. Against the preceding compound, the IC50 is about 1.7-fold higher.

With `Cn1c(N2CCC3(CC2)C[C@H](C(F)(F)F)C[C@H]3N)nc(N)c(Sc2cccnc2C(F)(F)F)c1=O` [Example 83], the IC50 stood at 56 nM.

`Cn1c(N2CCC3(CC2)C[C@@H](C(F)(F)F)C[C@H]3N)nc(N)c(Sc2cccnc2C(F)(F)F)c1=O` [Example 84] had an IC50 of 72 nM.

Compound `Cn1c(N2CCC3(CC2)CC(F)(F)C[C@H]3N)nc(N)c(Sc2ccccc2Cl)c1=O` [Example 85] displayed an IC50 of 77 nM.
